Data: patent publication US20130072473A1, “COMPOUNDS FOR TREATING PROTEIN FOLDING DISORDERS” (PROTEOSTASIS THERAPEUTICS, INC., priority 2011, published 2013)

Biological target: T1, ΔF508 expressing CFBE410- lung cells (Homo sapiens, UniProt P13569, DEL508-508)
T1 construct: host or cells: CFBE41o- lung cells
Assay: CFTR folding and trafficking assay (immunoblot of band B and C glycoforms)
Assay type: cell-based
Details: CFBE410- lung cells cultured in presence of compound versus DMSO; FIG. 1
Protocol: CFTR transport assays. Either ΔF508 expressing CFBE410- lung cells were cultured in the presence or absence of reagent in 12 well Sarstedt dishes, harvested, lysed and the processing of CFTR from the band B to the band C glycoform detected by SDS-PAGE and immunoblotting using either monoclonal 3G11 or M3A7.
Quantitation of CFTR glycoforms: Immunoblot exposures were selected to allow visualization of CFTR recovery under identical protein loads in same SDS-PAGE for all treatments. Given the dynamic range, quantitation of the band B and C glycoforms was made by analysis of band intensities that were in the linear range. The x-ray films were exposed for increasing time and the different exposures were quantified using a FluroChemSP (Alpha Inotech) densitometer/software package. Where band B and C were quantified from different exposures, an internal reference was used to normalize the signal intensity. This method is described in more detail in Hutt et al. (2010).^16 Reduced histone deacetylase 7 activity restores function to misfolded CFTR in cystic fibrosis, Nature Chemical Biology (2010), 6(1), 25-33, the contents of which are expressly incorporated by reference herein.

T1 sequence (P13569 with tags, fused parts or gaps DEL508-508): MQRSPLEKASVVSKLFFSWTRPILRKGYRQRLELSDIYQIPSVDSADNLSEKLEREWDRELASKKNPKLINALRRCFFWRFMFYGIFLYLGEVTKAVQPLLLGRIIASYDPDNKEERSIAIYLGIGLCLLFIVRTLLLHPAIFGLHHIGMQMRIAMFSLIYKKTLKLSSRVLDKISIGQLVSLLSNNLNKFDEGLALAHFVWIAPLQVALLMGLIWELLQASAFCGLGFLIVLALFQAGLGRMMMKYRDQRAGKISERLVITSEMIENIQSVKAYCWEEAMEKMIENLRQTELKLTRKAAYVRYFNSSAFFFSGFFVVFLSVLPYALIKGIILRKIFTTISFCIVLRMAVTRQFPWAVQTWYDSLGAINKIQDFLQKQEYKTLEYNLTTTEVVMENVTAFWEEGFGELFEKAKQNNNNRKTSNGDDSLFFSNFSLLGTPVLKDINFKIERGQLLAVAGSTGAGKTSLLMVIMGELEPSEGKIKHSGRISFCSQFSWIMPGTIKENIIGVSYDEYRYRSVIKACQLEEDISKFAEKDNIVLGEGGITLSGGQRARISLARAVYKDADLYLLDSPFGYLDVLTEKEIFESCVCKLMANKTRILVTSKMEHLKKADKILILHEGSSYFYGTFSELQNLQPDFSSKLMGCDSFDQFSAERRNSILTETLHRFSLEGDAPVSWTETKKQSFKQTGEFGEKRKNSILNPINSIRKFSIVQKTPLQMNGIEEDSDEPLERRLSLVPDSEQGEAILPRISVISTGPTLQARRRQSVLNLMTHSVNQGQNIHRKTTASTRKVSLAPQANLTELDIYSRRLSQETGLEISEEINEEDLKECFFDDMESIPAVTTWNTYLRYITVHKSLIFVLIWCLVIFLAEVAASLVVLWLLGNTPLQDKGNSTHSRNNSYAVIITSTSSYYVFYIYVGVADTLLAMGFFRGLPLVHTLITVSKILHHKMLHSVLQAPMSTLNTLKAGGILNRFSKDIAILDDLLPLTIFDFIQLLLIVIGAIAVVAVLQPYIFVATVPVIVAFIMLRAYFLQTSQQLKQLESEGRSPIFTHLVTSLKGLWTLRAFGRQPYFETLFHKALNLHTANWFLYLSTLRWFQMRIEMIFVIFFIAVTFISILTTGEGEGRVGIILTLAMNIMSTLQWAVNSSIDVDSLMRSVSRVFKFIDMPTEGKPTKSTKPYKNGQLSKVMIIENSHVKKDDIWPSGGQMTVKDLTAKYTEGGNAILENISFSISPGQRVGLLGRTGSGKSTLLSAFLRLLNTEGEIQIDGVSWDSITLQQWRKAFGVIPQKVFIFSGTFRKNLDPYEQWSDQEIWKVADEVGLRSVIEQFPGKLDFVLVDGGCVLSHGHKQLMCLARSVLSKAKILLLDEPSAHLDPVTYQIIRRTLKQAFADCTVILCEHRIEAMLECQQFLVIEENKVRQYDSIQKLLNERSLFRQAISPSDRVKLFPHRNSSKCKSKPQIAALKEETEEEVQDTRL

levels of CFTR band B and C by immunoblot: enhanced levels of band B and C
SMILES: CCN1CCc2c(sc(NC(C)=O)c2-c2nc3ccccc3s2)C1 [Example 2, N-(3-(benzo[d]thiazol-2-yl)-6-ethyl-4,5,6,7-tetrahydrothieno[2,3-c]pyridin-2-yl)acetamide]
